Read-outs that look alike come from different tables or passages of the source.
Target: Keap1-Maltose Binding Protein (MBP tag) (Homo sapiens, UniProt Q14145)
Experiment: Nrf2-Keap1 HTRF (TR-FRET) binding assay: displacement of biotinylated ETGE peptide from Keap1-MBP
[1] = HTRF (TR-FRET), displacement of ETGE-biotin from Keap1-MBP, values banded into grades, read-out: Binding (IC50) ETGE-Keap1

Sequence of Keap1-Maltose Binding Protein (MBP tag) (Q14145 whole entry): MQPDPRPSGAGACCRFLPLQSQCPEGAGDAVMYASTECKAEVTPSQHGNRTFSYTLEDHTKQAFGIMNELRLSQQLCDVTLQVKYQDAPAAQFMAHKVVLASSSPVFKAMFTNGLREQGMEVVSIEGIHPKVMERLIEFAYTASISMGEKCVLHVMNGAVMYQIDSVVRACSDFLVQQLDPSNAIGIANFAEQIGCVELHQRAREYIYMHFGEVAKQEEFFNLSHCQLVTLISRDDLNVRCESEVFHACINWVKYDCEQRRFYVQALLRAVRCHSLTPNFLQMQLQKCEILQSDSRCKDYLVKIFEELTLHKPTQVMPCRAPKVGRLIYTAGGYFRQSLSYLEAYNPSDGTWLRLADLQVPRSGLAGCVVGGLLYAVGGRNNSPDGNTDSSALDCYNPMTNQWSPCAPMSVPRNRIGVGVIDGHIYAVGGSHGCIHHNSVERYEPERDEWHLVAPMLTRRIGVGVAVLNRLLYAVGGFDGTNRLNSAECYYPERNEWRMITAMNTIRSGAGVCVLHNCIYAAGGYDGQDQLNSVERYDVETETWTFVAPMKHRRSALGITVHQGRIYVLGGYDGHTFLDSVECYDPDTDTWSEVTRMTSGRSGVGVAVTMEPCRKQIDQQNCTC

| Compound | IC50 [1] | IC50 |
| --- | --- | --- |
| CCCCCCCCCCCCCCCCCC(=O)N[C@H]1C[C@H]2C(=O)N[C@@H](CCC(N)=O)C(=O)N[C@H]3CSCc4cccc(c4)CSC[C@H](NC(=O)[C@H](CCC(=O)O)NC(=O)CNC(=O)[C@H]([C@@H](C)O)NC(=O)[C@H](CCC(=O)O)NC(=O)[C@@H]4CSCN4C(=O)[C@H](CC(=O)O)NC3=O)C(=O)N[C@@H](CC(C)C)C(=O)N3CCC[C@@H]3C(=O)N2C1 [Example 96, {[&^1Pro((4S)-NH-Stearyl)-Gln-Cys(&^2)-Asp-Thz-Glu-Thr-Gly-Glu-Cys(&^3)-Leu-D-Pro&^1][&^2(1,3-phenylenediyl)dimethylene&^3]}] | < 1 nM |  |
| CCCCCCCCCCCCCCCCCC(=O)N[C@H]1C[C@H]2C(=O)N[C@@H](CCC(N)=O)C(=O)N[C@H]3CSCC4(COC4)CSC[C@H](NC(=O)[C@H](CCC(=O)O)NC(=O)CNC(=O)[C@H]([C@@H](C)O)NC(=O)[C@H](CCC(=O)O)NC(=O)[C@@H]4CSCN4C(=O)[C@H](CC(=O)O)NC3=O)C(=O)N[C@@H](CC(C)C)C(=O)N3CCC[C@@H]3C(=O)N2C1 [Example 97, {[&^1Pro((4S)-NH-Stearyl)-Gln-Cys(&^2)-Asp-Thz-Glu-Thr-Gly-Glu-Cys(&^3)-Leu-D-Pro&^1][&^2(3,3-oxetanediyl)dimethylene&^3]}] | < 1 nM |  |
| CCCCCCCCCCCCCCCCCCC(=O)N[C@H]1C[C@H]2C(=O)N[C@@H](CCC(N)=O)C(=O)N[C@H]3CSCc4ccccc4CSC[C@H](NC(=O)[C@H](CCC(=O)O)NC(=O)CNC(=O)[C@H]([C@@H](C)O)NC(=O)[C@H](CCC(=O)O)NC(=O)[C@@H]4CCCN4C(=O)[C@H](CC(=O)O)NC3=O)C(=O)N[C@@H](CC(C)C)C(=O)N3CCC[C@@H]3C(=O)N2C1 [Example 98, {[&^1Pro((4S)-NH-Nonadecanoyl)-Gln-Cys(&^2)-Asp-Pro-Glu-Thr-Gly-Glu-Cys(&^3)-Leu-D-Pro&^1][&^2(1,2-phenylenediyl)dimethylene&^3]}] |  | < 1 nM |
| CCCCCCCCCCCCCCCCCC(=O)NCCC(=O)N[C@@H](CC(C)C)C(=O)N[C@@H](CC(C)C)C(=O)N[C@H]1CSCC2(COC2)CSC[C@@H](C(=O)N[C@@H](CC(C)C)C(=O)N[C@@H](CC(C)C)C(N)=O)NC(=O)[C@H](CCC(=O)O)NC(=O)CNC(=O)[C@H]([C@@H](C)O)NC(=O)[C@H](CCC(=O)O)NC(=O)[C@@H]2CCCN2C(=O)[C@H](CC(=O)O)NC1=O [Example 99, {[Stearyl-βAla-Leu-Leu-Cys(&^1)-Asp-Pro-Glu-Thr-Gly-Glu-Cys(&^2)-Leu-Leu-NH2][&^1(3,3-oxetanediyl)dimethylene&^2]}] | < 1 nM |  |
| CCCCCCCCCCCCCCCCCC(=O)N[C@H]1C[C@H]2C(=O)N[C@@H](CCC(N)=O)C(=O)N[C@H]3CSCC4(CCOCC4)CSC[C@H](NC(=O)[C@H](CCC(=O)O)NC(=O)CNC(=O)[C@H]([C@@H](C)O)NC(=O)[C@H](CCC(=O)O)NC(=O)[C@@H]4CCCN4C(=O)[C@H](CC(=O)O)NC3=O)C(=O)N[C@@H](CC(C)C)C(=O)N3CCC[C@@H]3C(=O)N2C1 [Example 100, {[&^1Pro((4S)-NH-Stearyl)-Gln-Cys(&^2)-Asp-Pro-Glu-Thr-Gly-Glu-Cys(&^3)-Leu-D-Pro&^1][&^2(tetrahydro-2H-pyran-4,4-diyl)dimethylene&^3]}] |  | 1 to 100 nM |

Source: patent publication US20200255478A1, “NOVEL COMPOUNDS ACTIVATING THE NRF2 PATHWAY” (Almirall, S.A., priority 2017, published 2020)
